Data set [1] deals with mAb08. The data set is described as follows: ITC titration of drug into mAb08. The class given is binding, mouse. Conditions: 25°C. The method, then:
(§1) ITC experiments were performed using an ITC-200 micro calorimeter from MicroCal (Northampton, MA, USA). Samples were dialyzed against PBS buffer and degassed prior to loading into the ITC cell. The drug samples were prepared in the same buffer to avoid buffer mismatch. Titrations were performed at 25°C by injecting consecutive aliquots (2 µl) of 45 µM drug into the ITC cell (volume of 200 µl) containing 3 µM antibody at 500 rpm stirring rate. Intervals between injections were set to be 150 sec in order to allow the heat from each injection to return to the baseline. Heats of dilution control experiments were performed by titrating ligand into buffer. The heats associated with the control titration were subtraced from the raw binding data prior to fitting. The data were fitted assuming that the antibody binding sites are identical using a single set binding model included in the Origin 7.0 software provided by the manufacturer. ITC directly measures the change in heat associated with two components going from the free to the bound state. Thus the observed molar change in enthalpy (ΔHobs) can be determined.
The binding isotherms, which is the incremental heat release as a function of complex formation is shown in the lower panel of Fig. 3. The solid line corresponds to the fit to a binding model to yield the equilibrium binding constant, K D, and the binding parameters, n and ΔH obs. The results of data analysis are shown in Table 1 along with the derived parameters, ΔGcal and ΔScal.
(§2) The thermodynamic parameters associated with the binding of cocaine to human serum and human serum albumin were investigated using ITC. We titrated 45 µM of cocaine to 20% of control human serum (no anti-cocaine antibodies) dialyzed against PBS (Figure 4A).
(In general: Isothermal titration calorimetry measures the heat released or taken up as one component is titrated into another.)

The target in data set [2] is f-mAb08. As to the kind of experiment: MST of fluorescently labeled f-mAb08 binding to drugs. Also noted: species or system mouse. Particulars: 25°C. The method, then: The fluorescent labeling was performed with a reactive RED dye (NT-647) following the manufacturer’s protocol (Nanotemper, Germany). […] Free dye was removed by purification on a Sephadex G-25 column provided with the kit. MST assays were carried out as described in Jerabek-Willesmsen et al.. Serial dilutions of unlabeled drug or antibody samples were mixed with 20 nM of NT-647-labeled proteins in PBS buffer (25 mM phosphate pH 7.4, 150 mM NaCl, 0.05% Tween-20) and incubated for 20 minutes. About 10 µl of sample was loaded into standard monolith NT capillaries provided by the manufacturer and assays were performed in a Nanotemper Monolith NT.015T. The Red fluorescence was exited using a light-emitting diode, and its emission was recorded at a focused location of capillary. Using another infrared laser diode a microscopic temperature gradient was created at the same location and the fluorescence depletion was measured. By plotting the concentrations of unlabeled binding partner with the changes in fluorescent thermophoresis signal, K D values were determined using the Nanotemper analysis software. The overlay diagram was made by normalizing the data to fraction bound.

For data set [3], the target named is mAb08. The data set is described as follows: SPR competitive inhibition of mAb08 binding to immobilized BSA-SNC. More on the design: species or system mouse. Conditions: 50 nM mAb08 mixed with increasing drug concentrations.
Data set [4] concerns RR6 enriched polyclonal antibodies. The data set is described as follows: SPR competitive inhibition of RR6 enriched polyclonal antibody binding to immobilized BSA-SNC. Also noted: species or system mouse. The method, then:
(§3) Data was collected using a medium collection rate at 25°C. The instrument was primed a few times using the running buffer before injecting the concentration series. For every binding cycle, the antibody samples were injected for 1.5 minutes at 50 µl/min flow rate and dissociation was monitored for 5 minutes. The bound antibody was releasedwith two 15 µl injections of pH 1.5 glycine buffer. The kinetic constants of binding were obtained using a 1∶1 Langmuir binding model. The raw data sets were analyzed using BIAevaluation (version 3.2) provided by BIAcore Inc. (Uppsala, Sweden). After the subtraction of background responses from the control flow cells, the association and dissociation phases were globally fitted for all the sensorgrams simultaneously, omitting any noisy data at the beginning and end of the analyte injection.

For data set [5] the following is noted: cited from earlier work.
The target in data set [6] is 20% human serum. The data set is described as follows: ITC titration of cocaine into 20% control human serum. Type of data set: binding. The procedure: as §1, §2
In data set [7] the test system is Clone 402. The data set is described as follows: ITC titration of cocaine into Clone 402 antibody. Type of data set: binding. The method, then:
as §1

The target in data set [8] is human serum albumin (Homo sapiens, UniProt P02768). As to the kind of experiment: ITC titration of cocaine into human serum albumin. The class given is binding. Conditions: 5 µM HSA against 45 µM cocaine in PBS. The procedure: as §1, §2
Sequence of human serum albumin (P02768 25-609): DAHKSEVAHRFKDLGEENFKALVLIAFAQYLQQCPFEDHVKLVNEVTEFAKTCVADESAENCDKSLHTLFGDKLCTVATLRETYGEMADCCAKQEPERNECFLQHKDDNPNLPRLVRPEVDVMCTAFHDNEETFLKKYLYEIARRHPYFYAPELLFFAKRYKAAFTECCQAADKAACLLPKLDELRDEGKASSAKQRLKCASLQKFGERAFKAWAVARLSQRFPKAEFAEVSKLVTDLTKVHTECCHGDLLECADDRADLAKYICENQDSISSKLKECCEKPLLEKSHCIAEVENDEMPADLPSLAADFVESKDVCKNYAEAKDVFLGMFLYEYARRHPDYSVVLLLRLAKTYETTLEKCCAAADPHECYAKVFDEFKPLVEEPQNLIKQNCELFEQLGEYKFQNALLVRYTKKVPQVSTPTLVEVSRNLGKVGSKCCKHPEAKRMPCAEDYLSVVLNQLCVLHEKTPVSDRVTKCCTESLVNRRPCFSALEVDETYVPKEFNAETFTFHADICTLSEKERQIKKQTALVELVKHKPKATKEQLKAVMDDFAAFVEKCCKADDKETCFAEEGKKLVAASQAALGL
Data set [9] has as its target enriched polyclonal antibodies purified from mouse or patient serum. The data set is described as follows: SPR competitive inhibition of enriched polyclonal antibody binding to immobilized BSA-SNC. The method, then: as §3
For data set [10], the system named is nonspecific human IgG. The data set is described as follows: ITC of cocaine in presence of nonspecific human IgG. The class given is binding. Particulars: 7 µM non-specific human IgG with mAb08. The method, then: as §1, §2
Data set [11] deals with cAMP kinase. More on the design: method as in PMID 20981028. Particulars: in presence of 30% human serum; cited from earlier work.
Where [12] appears, read: 20 nM f-mAb08, 20% control human serum, read-out: K D ^2 (nM) (Serum%).
[13] abbreviates: 20 nM f-mAb08, PBS (phosphate buffer), read-out: K D ^1 (nM) Enriched IgG.

“Also recorded” adds a separate entry of the source. Where a name gives a salt, the structure may show the parent alone. Read-outs that look alike come from different tables or passages of the source.

In [1] (PBS pH 7.4, sample mAb08), `CN1[C@H]2CC[C@@H]1[C@@H](C(=O)O)[C@@H](OC(=O)c1ccccc1)C2` [Benzoylecgonine] had a Kd of 18.6 ± 48.7 nM, a ΔGcal of -10.5 kcal/mol, a ΔHobs of -21.66 ± 0.61 kcal/mol and a ΔScal of −37.3 cal.mol^−1K^−1. Also, the Kd in data set [2] (setting [12]) stood at 98 nM. The Kd in data set [2] (setting [13]) was 23.7 nM. This compound also gave a half-maximal inhibitory concentration (IC50) in data set [3] of 123 nM. This compound showed a concentration for half-maximal inhibition (IC50) in [3] (listed as BE) of about 123 nM. Besides, in data set [4], the “inhibition of RR6 enriched fraction binding to BSA-SNC” value was “did not show any significant inhibition”. In data set [5], the elimination half-life is 6 to 8 h.
As to `COC(=O)[C@H]1[C@@H](OC(=O)c2ccccc2)C[C@@H]2CC[C@H]1N2C` [Cocaine, Cocaine hydrochloride], the Kd in data set [1] (PBS pH 7.4, sample mAb08) was 2.5 ± 6.8 nM; in data set [1] (sample mAb08+7 µM hIgG) it was 4 ± 10.5 nM; in data set [1] (sample mAb08+20% Serum), 113 nM; in [1] (sample mAb08+20% Serum, listed as cocaine), about 113 nM; in data set [6] (45 µM cocaine to 20% control human serum), about 2000 nM; in data set [6] (25°C, sample 20% Serum), 2000 nM. Also, the Kd in data set [7] (ITC, 25°C, sample Clone 402, read-out: K D) is 10000 nM; in [7] (clone 402 (Arista Biologicals), read-out: affinity to cocaine), about 10000 nM; in data set [2] (setting [12]), 105 nM; in [2] (20 nM f-mAb08, 50% control human serum, listed as cocaine, read-out: K D ^2 (nM) (Serum%)), about 100 nM; in data set [2] (20 nM f-mAb08, 50% control human serum, read-out: K D ^2 (nM) (Serum%)), 128 nM; in [2] (setting [13]), 7.8 nM. The ΔGcal in [1] (PBS pH 7.4, sample mAb08) is -11.7 kcal/mol; in data set [1] (sample mAb08+7 µM hIgG), -11.5 kcal/mol; in data set [1] (sample mAb08+20% Serum), -9.5 kcal/mol; in data set [6] (25°C, sample 20% Serum), -7.8 kcal/mol; in data set [7] (ITC, 25°C, sample Clone 402) it was -6.8 kcal/mol. Also, the ΔHobs is -28.08 ± 0.37 kcal/mol in data set [1] (PBS pH 7.4, sample mAb08); -28.58 ± 0.35 kcal/mol in data set [1] (sample mAb08+7 µM hIgG); -28 kcal/mol in [1] (sample mAb08+7 µM hIgG, listed as cocaine); -33.19 ± 0.61 kcal/mol in [1] (sample mAb08+20% Serum); -21.82 ± 3.16 kcal/mol in data set [6] (25°C, sample 20% Serum); -26.4 ± 1.93 kcal/mol in data set [7] (ITC, 25°C, sample Clone 402). Besides, the ΔScal is listed as −54.8 cal.mol^−1K^−1 in [1] (PBS pH 7.4, sample mAb08); −57.4 cal.mol^−1K^−1 in data set [1] (sample mAb08+7 µM hIgG); −79.5 cal.mol^−1K^−1 in data set [1] (sample mAb08+20% Serum); −47.1 cal.mol^−1K^−1 in data set [6] (25°C, sample 20% Serum); −65.6 cal.mol^−1K^−1 in data set [7] (ITC, 25°C, sample Clone 402). Moreover, the “binding to human serum albumin” value in data set [8] is reported as “very little interaction; also recorded: no detectable binding; also recorded: does not bind strongly”. Moreover, the half-inhibitory concentration (IC50) in data set [3] was about 100 nM; in data set [3] (listed as cocaine) it was about 104 nM; in [9], 100 to 500 nM. In addition, in [10], the “binding to nonspecific human IgG” value is on record as “very little interaction; also recorded: absence of non-specific cocaine binding”. The elimination half-life in [5] (depends on route of administration) is 1 to 1.5 h.
For the compound `O=c1c(O)c(-c2ccc(O)c(O)c2)oc2cc(O)cc(O)c12` [quercetin], the “fold decrease in affinity” value in [11] is reported as 400 fold.
As to `CCOC(=O)[C@@H]1C2CCC(C[C@@H]1OC(=O)c1ccccc1)N2C` (stereo partly drawn) [Cocaethylene], in [1] (PBS pH 7.4, sample mAb08), the Kd was determined as 34.4 nM, the ΔGcal was -10.2 kcal/mol, the ΔHobs was -21.16 ± 0.48 kcal/mol and the ΔScal is −36.8 cal.mol^−1K^−1. For the same compound, in [2] (setting [12]), the Kd was 169 nM. Besides, in data set [2] (setting [13]), the Kd was 47 nM.

The term IC50 denotes the point on the concentration scale where inhibition reaches its midpoint. A lower IC50 goes with inhibition by little substance.

The values are drawn from PMC3409241, “Probing Cocaine-Antibody Interactions in Buffer and Human Serum” (PLoS ONE, 2012).
